From PMC8958511, “Development of Sulfamoylated 4-(1-Phenyl-1H-1,2,3-triazol-4-yl)phenol Derivatives as Potent Steroid Sulfatase Inhibitors for Efficient Treatment of Breast Cancer” (Journal of Medicinal Chemistry, 2022)
Where two headings read alike, the source gives them in different places.

How the values were obtained:
[1] = biological target: T1, STS in MCF-7 cells (Homo sapiens, UniProt P08842); assay: radioisotope cellular assay with [3H]E1S in MCF-7 cells; assay type: cell-based; settings: for remaining activity at 0.001 µM / remaining activity at 0.01 µM / remaining activity at 0.1 µM: MCF7, 20 h; for remaining activity at 0.001 µM: read-out: residual STS activity [%] 1 nM; for remaining activity at 0.01 µM: read-out: residual STS activity [%] 10 nM; for remaining activity at 0.1 µM: read-out: residual STS activity [%] 100 nM
T1 construct: The radioisotope cellular assay was performed using the MCF-7 cell line; endogenous in cells; host or cells: MCF-7
T1 sequence (P08842 22-583): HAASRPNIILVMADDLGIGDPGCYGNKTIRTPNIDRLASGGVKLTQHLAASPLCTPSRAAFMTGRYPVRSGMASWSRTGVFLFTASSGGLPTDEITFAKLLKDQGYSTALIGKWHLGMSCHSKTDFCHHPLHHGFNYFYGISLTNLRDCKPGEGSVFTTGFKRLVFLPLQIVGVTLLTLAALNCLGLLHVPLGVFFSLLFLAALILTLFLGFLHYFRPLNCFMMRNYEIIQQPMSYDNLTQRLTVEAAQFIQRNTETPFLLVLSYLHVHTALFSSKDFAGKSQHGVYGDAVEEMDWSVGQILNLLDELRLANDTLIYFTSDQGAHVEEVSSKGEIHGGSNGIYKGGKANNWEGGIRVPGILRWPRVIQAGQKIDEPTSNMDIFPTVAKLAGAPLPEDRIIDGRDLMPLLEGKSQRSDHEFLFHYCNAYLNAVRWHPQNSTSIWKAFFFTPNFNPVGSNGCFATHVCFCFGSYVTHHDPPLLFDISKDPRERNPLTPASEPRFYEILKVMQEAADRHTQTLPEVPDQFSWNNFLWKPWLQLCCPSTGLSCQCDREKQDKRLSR
Procedure: All compounds were initially tested for their in cell inhibitory action at a 100 nM concentration.
The inhibitory potency of the synthesized compounds was examined in two ways, including an enzymatic assay and the radioisotope cellular test. […] The radioisotope cellular assay was performed using the MCF-7 cell line in the presence of radiolabeled [^3H]E1S.
The evaluation of the inhibitory effect of each compound with breast cancer cells was performed using a previously described method (27) with some modifications. MCF-7 cells were maintained in Dulbecco’s modified Eagle medium supplemented with 10% fetal bovine serum and cultured in the above medium until 80% confluence. […] After incubation, the medium (0.45 mL) was collected from each well, and the product formed by STS hydrolysis was extracted with toluene (4 mL). STS activity was measured using a MicroBeta radioluminometer (PerkinElmer). Assays with MCF-7 cells were carried out in triplicate.

[2] = biological target: T2, STS isolated from the human placenta (Homo sapiens, UniProt P08842); assay: radioisotope enzymatic assay with STS isolated from human placenta and [3H]E1S; assay type: biochemical; settings: 0.5 μM inhibitor concentration, substrate [3H]E1S, 3 nM, triplicate; for remaining activity at 0.5 µM: read-out: residual STS activity [%]
T2 construct: radioisotope enzymatic assay using STS isolated from the human placenta; from tissue; host or cells: human placenta
T2 sequence (P08842 22-583): T1 sequence (P08842 22-583)
Procedure: The inhibitory potency of the synthesized compounds was examined in two ways, including an enzymatic assay and the radioisotope cellular test. The enzymatic assay was performed using the STS enzyme isolated from human placenta and using radiolabeled [^3H]E1S as a substrate.
The total volume of the reaction mixture was 100 μL. […] After incubation, the reaction mixture (90 μL) was collected from each well, and the product formed by STS hydrolysis was extracted with toluene (0.5 mL). STS activity was measured using a MicroBeta radioluminometer (PerkinElmer). Enzymatic assays were carried out in triplicate.

[3] = system: 67NR mouse mammary tumor cells; assay: antitumor activity in 67NR orthotopic mouse breast carcinoma model; assay type: in vivo, BALB/c mice; settings: 50 mg/kg b.w. per os
Procedure: The tumor volume (TV) and body weight were measured three times a week. Results for individual groups are reported in Figure S5, Supporting Information. Based on TV data, the tumor growth inhibition (TGI) was calculated for groups that received compounds and compared to that of the control group. […] The body weight of the treated animals was monitored during the study, and the body weight change (BWC) index was calculated (Figure 4). […] Body weight loss was observed between D2 and D11 and reached 4.5% at most.
The growth of tumors has been observed.

[4] = assay type: in vivo; settings: Table S1, MTD study, 50 mg/kg
Procedure: The mice were thus weighed, and their general health was observed. […] At the end of the study, the mice were sacrificed by dislocation of the cervical vertebrae, and the internal organs were examined macroscopically.
The mice were weighed, and their general health was observed. […] At the end of the MTD study, the autopsy was performed, and the internal organs (liver, kidney, and spleen) were weighed and macroscopically assessed.

[5] = blood morphology, blood biochemistry and organ weights of mice with 67NR tumor
Procedure: At the end of the study, the autopsy of the animals was performed: blood was collected for further analyses of the morphology (Table S2, Supporting Information) and biochemistry (Table S3 and Figure S6, Supporting Information) and for the determination of the plasma estradiol level using the ELISA method.
Mice were injected orthotopically (in the mammary gland fat pad) with 67NR mouse mammary tumor cells derived from in vitro culture (1.5 × 10^5 cells/0.05 mL Hanks fluid/mouse). The growth of tumors has been observed. […] Animals were observed during the next 17 days and euthanized. During observation, body weight and tumor growth were monitored three times a week. The volume of the tumors was calculated according to the following formula: TV = a^2·b/2 [mm^3], (where: a—width and b—length of the tumor). Blood, tumor tissue, and liver were harvested during autopsy for further analyses. Blood aliquots (about 500 μL) were collected in EDTA containing vials for morphology analysis (Mythic 18 analyzer, Orphee), and then, the plasma was collected (centrifuged at 2500g for 15 min at 4 °C within 1 h after collection) for biochemical parameter analysis (Cobas c111, Roche).

[6] = MCF-7 cells, 1 nM inhibitor, substrate [3H]E1S, 3 nM, triplicate
[7] = MCF-7 cells, 10 nM inhibitor, substrate [3H]E1S, 3 nM, triplicate
[8] = MCF-7 cells, 100 nM inhibitor, substrate [3H]E1S, 3 nM, triplicate
[9] = Table S2, mice with 67NR tumor, 50 mg/kg
[10] = Table S3, plasma, mice with 67NR tumor, 50 mg/kg per os, N=9

`NS(=O)(=O)Oc1ccc(-c2cn(-c3cccc(Br)c3)nn2)cc1` [4c, 4-(1-(3-Bromophenyl)-1H-1,2,3-triazol-4-yl)phenyl Sulfamate] showed a remaining activity at 0.001 µM [1, 6] of 79.4 ± 4.76%, a remaining activity at 0.01 µM [1, 7] of 39.9 ± 2.19% and a remaining activity at 0.1 µM [1, 8] of 2.1 ± 0.07%. The melting point was 212 to 213 °C (dec.) and the remaining activity at 0.5 µM [2] was 24.1 ± 1.2%.
`NS(=O)(=O)Oc1ccc(-c2cn(-c3cccc(I)c3)nn2)cc1` [4d, 4-(1-(3-Iodophenyl)-1H-1,2,3-triazol-4-yl)phenyl Sulfamate] showed a remaining activity at 0.001 µM [1, 6] of 67.5 ± 3.71%, a remaining activity at 0.01 µM [1, 7] of 31.8 ± 1.59% and a remaining activity at 0.1 µM [1, 8] of 2 ± 0.11%. The melting point was 228 to 229 °C (dec.), the “residual STS activity [%]” value [2] was 13.23 ± 0.66% and the remaining activity at 0.5 µM [2] was 13.2%.
For `Cc1cccc(-n2cc(-c3ccc(OS(N)(=O)=O)cc3)nn2)c1` [4e, 4-(1-(3-Methylphenyl)-1H-1,2,3-triazol-4-yl)phenyl Sulfamate], the remaining activity at 0.1 µM [1, 8] was 3.1 ± 0.12%, the melting point was 212 to 213 °C (dec.) and the remaining activity at 0.5 µM [2] was 34.2 ± 1.71%.
For `Cc1cc(C)cc(-n2cc(-c3ccc(OS(N)(=O)=O)cc3)nn2)c1` [4f, 4-(1-(3,5-Dimethylphenyl)-1H-1,2,3-triazol-4-yl)phenyl Sulfamate], the remaining activity at 0.1 µM [1, 8] was 10.2 ± 0.61% and the remaining activity at 0.5 µM [2] was 52.5 ± 2.62%.
With `COc1cccc(-n2cc(-c3ccc(OS(N)(=O)=O)cc3)nn2)c1` [4g, 4-(1-(3-Methoxyphenyl)-1H-1,2,3-triazol-4-yl)phenyl Sulfamate] the remaining activity at 0.1 µM [1, 8] was 6.8 ± 0.24%, the melting point was 210 to 212 °C (dec.) and the remaining activity at 0.5 µM [2] was 43.4 ± 2.17%.
For `COc1cc(OC)cc(-n2cc(-c3ccc(OS(N)(=O)=O)cc3)nn2)c1` [4h, 4-(1-(3,5-Dimethoxyphenyl)-1H-1,2,3-triazol-4-yl)phenyl Sulfamate], the remaining activity at 0.1 µM [1, 8] was 34.3 ± 1.88%, the melting point was 225 to 227 °C (dec.) and the remaining activity at 0.5 µM [2] was 55.1 ± 2.76%.
With `CCc1cccc(-n2cc(-c3ccc(OS(N)(=O)=O)cc3)nn2)c1` [4i, 4-(1-(3-Ethylphenyl)-1H-1,2,3-triazol-4-yl)phenyl Sulfamate] the remaining activity at 0.1 µM [1, 8] was 2.6 ± 0.08%, the melting point was 223 to 225 °C (dec.) and the remaining activity at 0.5 µM [2] was 14.5 ± 0.73%.
For `CC(C)c1cccc(-n2cc(-c3ccc(OS(N)(=O)=O)cc3)nn2)c1` [4j, 4-(1-(3-Isopropylphenyl)-1H-1,2,3-triazol-4-yl)phenyl Sulfamate], the remaining activity at 0.01 µM [1, 7] was 73.4%, the remaining activity at 0.1 µM [1, 8] was 2.4 ± 0.12% and the melting point was 202 to 204 °C (dec.). For the same compound, the remaining activity at 0.5 µM [2] was 18.1 ± 0.9%.
For `NS(=O)(=O)Oc1ccc(-c2cn(-c3cccc([N+](=O)[O-])c3)nn2)cc1` [4k, 4-(1-(3-Nitrophenyl)-1H-1,2,3-triazol-4-yl)phenyl Sulfamate], the remaining activity at 0.1 µM [1, 8] was 5.9 ± 0.32%, the melting point was 225 to 226 °C (dec.) and the remaining activity at 0.5 µM [2] was 28.9 ± 1.44%.
In the case of `NS(=O)(=O)Oc1ccc(-c2cn(-c3cc(Br)cc(Br)c3)nn2)cc1` [4l, 4-(1-(3,5-Dibromophenyl)-1H-1,2,3-triazol-4-yl)phenyl Sulfamate], the remaining activity at 0.1 µM [1, 8] is reported as 8.3 ± 0.4%, the melting point is reported as 228 to 229 °C (dec.) and the remaining activity at 0.5 µM [2] is reported as 28.9 ± 1.44%.
For `NS(=O)(=O)Oc1ccc(-c2cn(-c3cc(I)cc(I)c3)nn2)cc1` [4m, 4-(1-(3,5-Diiodophenyl)-1H-1,2,3-triazol-4-yl)phenyl Sulfamate], the remaining activity at 0.1 µM [1, 8] was 18.7%, the melting point was 213 to 216 °C (dec.) and the “residual STS activity [%]” value [2] was 11.78 ± 0.59%. It also gave a remaining activity at 0.5 µM [2] of 11.8%.
In the case of `NS(=O)(=O)Oc1ccc(-c2cn(-c3ccc(F)cc3)nn2)cc1` [5a], the remaining activity at 0.01 µM [1, 7] is reported as 60.2 ± 2.7% and the remaining activity at 0.1 µM [1, 8] is reported as 1.5 ± 0.05%.
In the case of `NS(=O)(=O)Oc1ccc(-c2cn(-c3ccccc3)nn2)cc1` [5b], the remaining activity at 0.01 µM [1, 7] is reported as 46.6 ± 1.63% and the remaining activity at 0.1 µM [1, 8] is reported as 1.5 ± 0.05%.
In the case of `NS(=O)(=O)Oc1ccc(-c2cn(-c3ccccc3C(F)(F)F)nn2)cc1` [5c], the remaining activity at 0.1 µM [1, 8] is reported as 5.5 ± 0.3%.
For `NS(=O)(=O)Oc1ccc(-c2cn(-c3cc(C(F)(F)F)cc(C(F)(F)F)c3)nn2)cc1` [5d], the remaining activity at 0.1 µM [1, 8] was 14.7 ± 0.88%.
Work on `NS(=O)(=O)Oc1ccc(-c2cn(-c3ccc(F)c(F)c3F)nn2)cc1` [5e] yielded a remaining activity at 0.001 µM [1] of 38.9%, a remaining activity at 0.01 µM [1] of 24.2 ± 1.45% and a remaining activity at 0.1 µM [1] of 1 ± 0.04%. For the same compound, the IC50 ([1]; MCF-7 cells, substrate [3H]E1S, 3 nM) was 2.95 ± 0.13 nM, the “body weight of treated tumor-bearing mice (observation)” value [3] was “An increase in body weight was observed” and the “tumor growth inhibition (TGI)” value ([3]; 5 days a week, 67NR tumor, N = 9, vs control group) was “did not show any significant effect”. For the same compound, the “mice responded to the treatment” value ([3]; nine mice/group) was 6 mice poorly responded to the treatment, the “mice with much larger tumor than the mean control volume” value ([3]; nine mice/group) was 2 mice and the “mice with tumor volume reduced by approx. 50% compared to the TV control” value ([3]; nine mice/group) was 1 mice. For the same compound, the GRAN [4] was 11,1±1,9%, the HCT [4] was 42,3±1,3% and the HGB [4] was 15,7±0,5 g/dL. The LIMF [4] was 85,6±2,6%, the MCH [4] was 17,1±0,2 pg and the MCHC [4] was 37,2±0,7 g/dL. The MCV [4] was 46±0,5 fL, the MON [4] was 3,3±1% and the PLT [4] was 511±30 10x3/uL. The RBC [4] was 9,2±0,4 10x6/uL, the RDW [4] was 17,6±0,7% and the WBC [4] was 4,0±0,4 10x3/uL. The HCT [5, 9] was 34,6±1,6%, the HGB [5, 9] was 13,4±0,6 g/dL and the MCH [5, 9] was 18,2±0,4 pg. For the same compound, the MCHC [5, 9] was 38,6±0,5 g/dL, the MCV [5, 9] was 47±1,2 fL and the MPV [5, 9] was 4,9±0,1 fL. For the same compound, the PCT [5, 9] was 0,280±0,04%, the PDW [5, 9] was 25,6±3,8 fL and the RBC [5, 9] was 7,4±0,4 x106/uL. The RDW [5, 9] was 19,2±1,2%, the WBC [5, 9] was 6,1±2,1 x103/uL and the ALT [5, 10] was 31,1±10,7 U/L. For the same compound, the AST [5, 10] was 97,4±24,9 U/L, the creatinine [5, 10] was 5,33±1,21 umol/L and the urea [5, 10] was 7,65±0,54 mmol/L.
In the case of `NS(=O)(=O)Oc1ccc(-c2cn(-c3ccc(F)c(F)c3)nn2)cc1` [5f], the remaining activity at 0.1 µM [1, 8] is reported as 3 ± 0.14%.
Compound `NS(=O)(=O)Oc1ccc(-c2cn(-c3ccc(F)cc3C(F)(F)F)nn2)cc1` [5h] has a remaining activity at 0.01 µM [1, 7] of 48.2 ± 3.37%.
In the case of `NS(=O)(=O)Oc1ccc(-c2cn(-c3ccc(OC(F)(F)F)cc3)nn2)cc1` [5i], the remaining activity at 0.001 µM [1, 6] is reported as 71.8 ± 4.67%, the remaining activity at 0.01 µM [1, 7] is reported as 9.5 ± 0.48% and the remaining activity at 0.1 µM [1, 8] is reported as 1%. For the same compound, the “residual STS activity [%] 100 nM” value [1, 8] was 1.0%.
In the case of `NS(=O)(=O)Oc1ccc(-c2cn(-c3ccc(C(F)(F)F)cc3)nn2)cc1` [5j], the remaining activity at 0.1 µM [1, 8] is reported as less than 5%.
Work on `NS(=O)(=O)Oc1ccc(-c2cn(-c3ccccc3OC(F)(F)F)nn2)cc1` [5k] yielded a remaining activity at 0.1 µM [1, 8] of 15.5 ± 0.93%.
`NS(=O)(=O)Oc1ccc(-c2cn(-c3cccc(C(F)(F)F)c3)nn2)cc1` [5m] gave a remaining activity at 0.01 µM [1, 7] of 59.9 ± 3.29%.
`Cc1cc(=O)oc2cc(OS(N)(=O)=O)ccc12` [COUMATE, reference compound] showed a remaining activity at 0.1 µM [1] of 51.8%.
